We go through 2 molecules from patent US9808003B2, “Herbicidally active 2-(substituted-phenyl)-cyclopentane-1,3-dione compounds and derivatives thereof” (Syngenta Limited, priority 2013, dated 2017).

Type in all cases: in vivo
The subject of test [1] is Avena fatua (AVEFA). As to the kind of experiment: Test 1A glasshouse assay, pre-emergence herbicidal activity. To be noted: 312 h, 250 g/ha, 13 days after application, read-out: Pre-emergence herbicidal activity (% phytotoxicity) AVEFA.
The test system of test [2] is Alopecurus myosuroides (ALOMY). The test is described as above. To be noted: 312 h, 250 g/ha, 13 days after application, read-out: Pre-emergence herbicidal activity (% phytotoxicity) ALOMY.
Test [3] deals with Echinochloa crus-galli (ECHCG). Described as above. To be noted: 312 h, 250 g/ha, 13 days after application, read-out: Pre-emergence herbicidal activity (% phytotoxicity) ECHCG.
For test [4], the system named is Lolium perenne (LOLPE). The description is as above. To be noted: 312 h, 250 g/ha, 13 days after application, read-out: Pre-emergence herbicidal activity (% phytotoxicity) LOLPE.
Test [5] concerns Spring Wheat “Freya”. The test can be described thus: Test 1B glasshouse assay, post-emergence herbicidal activity against cereal crops.
The subject of test [6] is Avena fatua (AVEFA). As to the kind of experiment: Test 1A glasshouse assay, post-emergence herbicidal activity. To be noted: Avena fatua, 312 h, application rate 250 g/ha, 13 days after application, visual (100%=total damage; 0%=no damage), read-out: Post-emergence Herbicidal Activity (% Phytotoxicity) AVEFA. A digest of the protocol:
(§1)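 Post-emergence: plants sprayed after 8 days' glasshouse growth (24/16° C, 14 h light, 65% humidity) with acetone/water (50:50) formulation containing 0.5% Tween 20. Visual % phytotoxicity (0 = none, 100 = total damage) scored 13 days after application.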

Test [7] concerns Lolium perenne (LOLPE). Described as above. Particulars: Lolium perenne, 312 h, application rate 250 g/ha, 13 days after application, visual (100%=total damage; 0%=no damage), read-out: Post-emergence Herbicidal Activity (% Phytotoxicity) LOLPE. In short, it runs like this:
as §1

Test [8] concerns Spring Wheat “Teal”. The test can be described thus: Test 1B glasshouse assay, post-emergence herbicidal activity against cereal crops. Particulars: 14 DAA. In short, it runs like this:
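Visual percentage damage (100% = total, 0% = none) read 14 days after application, averaged over two replicates. Plants grown 14 days at 22/16 °C day/night before post-emergence spraying of unformulated compound (IF50/acetone, 0.5% v/v Adigor). Rates usually 60–120 g/ha; cloquintocet-mexyl 50 g/ha co-applied where stated.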

The mark [9] stands for this setting: herbicide 30 g/ha, cloquintocet-mexyl 50 g/ha.
[10] abbreviates: herbicide 60 g/ha, cloquintocet-mexyl 0 g/ha.
[11] abbreviates: herbicide 60 g/ha, cloquintocet-mexyl 50 g/ha.

Structures are written as SMILES.

Turning to `Cc1cc(C)c(C2C(=O)CC(CCNC(=O)c3ccc(Br)cn3)C2=O)c(C)c1` (racemic) [Compound A120, 5-bromo-N-{2-[2,4-dioxo-3-(2,4,6-trimethylphenyl)cyclopentyl]ethyl}pyridine-2-carboxamide], the inhibition at 250 g/ha in test [1] came out at 70%; in test [2] it was 90%; in test [3], 100%; in test [4], 100%. In addition, the “Percentage Phytotoxicity Spring Wheat “Freya”” value was 18% in test [5] (setting [9]); 30% in test [5] (herbicide 45 g/ha, cloquintocet-mexyl 50 g/ha); 55% in test [5] (setting [10]); 30% in test [5] (setting [11]). Also, the pest or weed control at 250 g/ha in test [6] was determined as 90%; in test [7] it was 100%.
On to `Cc1cc(C)c(C2C(=O)CC(CCNC(=O)c3cccc(F)n3)C2=O)c(C)c1` (racemic) [Compound A89], for which the inhibition at 250 g/ha in test [1], in test [2], in test [3] and in test [4] was 100% in each case. Besides, the “Percentage Phytotoxicity Spring Wheat “Freya”” value in test [5] (setting [9]) is 13%; in test [5] (setting [10]) it was 70%; in test [5] (setting [11]) it was 38%. Also, the pest or weed control at 250 g/ha in test [6] and in test [7] was 100% each time. Further, the “Post-emergence herbicidal activity against cereal crops, percentage phytotoxicity, Spring Wheat “Teal”” value in test [8] (30 g/ha herbicide, 50 g/ha cloquintocet-mexyl) is reported as 13%; in test [8] (45 g/ha herbicide, 50 g/ha cloquintocet-mexyl) it was 20%; in test [8] (60 g/ha herbicide, 0 g/ha cloquintocet-mexyl), 75%; in test [8] (60 g/ha herbicide, 50 g/ha cloquintocet-mexyl), 50%.
